Reference: patent US6737383B1, “Herbicidal oxadiazolidines” (priority 1999, dated 2004)

Assays:
Green foxtail [1] = assay: Test D green foxtail; assay type: in vivo; conditions: Rate 250 g/ha; Postemergence; 0 to 100 scale
Alexandergrass = assay: Test D Alexandergrass; assay type: in vivo, Brachiaria plantaginea; conditions: Postemergence, 0 to 100 scale
large crabgrass = assay: Test D large crabgrass; assay type: in vivo, Digitaria sanguinalis; conditions: Postemergence, 0 to 100 scale
purple nutsedge = assay: Test D purple nutsedge; assay type: in vivo, Cyperus rotundus; conditions: Postemergence, 0 to 100 scale
sandbur = assay: Test D sandbur; assay type: in vivo, Cenchrus echinatus; conditions: Postemergence, 0 to 100 scale
guineagrass = assay: Test D guineagrass; assay type: in vivo, Panicum maximum; conditions: Postemergence, 0 to 100 scale
common ragweed = assay: Test D common ragweed; assay type: in vivo, Ambrosia elatior; conditions: Postemergence, 0 to 100 scale
Green foxtail [2] = assay: Test D green foxtail; assay type: in vivo; conditions: Postemergence, 0 to 100 scale, 0 no injury, 100 complete control
goosegrass = assay: Test D goosegrass; assay type: in vivo, Eleusine indica; conditions: Postemergence, 0 to 100 scale
[3] = Rate 16 g/ha, 0 no injury, 100 complete control
[4] = Rate 32 g/ha, 0 no injury, 100 complete control
[5] = Rate 64 g/ha, 0 no injury, 100 complete control
[6] = Rate 125 g/ha, 0 no injury, 100 complete control

Compound	Plant response rating, Green foxtail (Green foxtail [1])	Plant response rating, Alexandergrass (Alexandergrass; [3])	Plant response rating, Alexandergrass (Alexandergrass; [4])	Plant response rating, Alexandergrass (Alexandergrass; [5])	Plant response rating, Alexandergrass (Alexandergrass; [6])	Plant response rating, Alexandergrass (Alexandergrass; Rate 250 g/ha)	Plant response rating, Large crabgrass (large crabgrass; [3])	Plant response rating, Large crabgrass (large crabgrass; [4])	Plant response rating, Large crabgrass (large crabgrass; [5])	Plant response rating, Large crabgrass (large crabgrass; [6])	Plant response rating, Large crabgrass (large crabgrass; Rate 250 g/ha)	Plant response rating, Purple nutsedge (purple nutsedge; [3])	Plant response rating, Purple nutsedge (purple nutsedge; [4])	Purple nutsedge plant response rating (purple nutsedge; [5])	Purple nutsedge plant response rating (purple nutsedge; [6])	Plant response rating, Purple nutsedge (purple nutsedge; Rate 250 g/ha)	Plant response rating, Sandbur (sandbur; [3])	Plant response rating, Sandbur (sandbur; [4])	Sandbur plant response rating (sandbur; [5])	Sandbur plant response rating (sandbur; [6])	other results
CC(C)N(C(=O)n1oc(=O)n(C2CC2)c1=O)c1ccc(Cl)cc1 [Compound 241]	100	0	10	10	100	100	0	70	100	100	100	0	0	0	0	0	0	40	20	100	Plant response rating, Sandbur (sandbur; Rate 250 g/ha): 90; Plant response rating, Guineagrass (guineagrass; [3]): 0; Plant response rating, Guineagrass (guineagrass; [4]): 0; Guineagrass plant response rating (guineagrass; [5]): 100; Plant response rating, Guineagrass (guineagrass; [5]): 80; Plant response rating, Guineagrass (guineagrass; [6]): 100; Plant response rating, Guineagrass (guineagrass; Rate 250 g/ha): 100; Plant response rating, C. ragweed (common ragweed; [3]): 0; Plant response rating, C. ragweed (common ragweed; [4]): 0; Plant response rating, C. ragweed (common ragweed; [5]): 20; Plant response rating, C. ragweed (common ragweed; [6]): 100; Plant response rating, C. ragweed (common ragweed; Rate 250 g/ha): 100; Plant response rating, Green foxtail (Green foxtail [2]; Rate 16 g/ha): 0; Plant response rating, Green foxtail (Green foxtail [2]; Rate 32 g/ha): 10; Plant response rating, Goosegrass (goosegrass; [3]): 0; Plant response rating, Goosegrass (goosegrass; [4]): 100; Plant response rating, Goosegrass (goosegrass; [5]): 100; Plant response rating, Goosegrass (goosegrass; [6]): 100; Plant response rating, Goosegrass (goosegrass; Rate 250 g/ha): 100
CC(C)N(C(=O)n1oc(=O)n(C2CCC2)c1=O)c1ccccc1 [Compound 348]	100	0	0	70	100	100	20	60	100	100	100	0	0	0	0	0	0	0	20	60	Plant response rating, Sandbur (sandbur; Rate 250 g/ha): 100; Plant response rating, Guineagrass (guineagrass; [3]): 0; Plant response rating, Guineagrass (guineagrass; [4]): 0; Plant response rating, Guineagrass (guineagrass; [5]): 0; Plant response rating, Guineagrass (guineagrass; [6]): 100; Plant response rating, Guineagrass (guineagrass; Rate 250 g/ha): 80; Plant response rating, C. ragweed (common ragweed; [3]): 0; Plant response rating, C. ragweed (common ragweed; [4]): 0; Plant response rating, C. ragweed (common ragweed; [5]): 0; Plant response rating, C. ragweed (common ragweed; [6]): 0; Plant response rating, C. ragweed (common ragweed; Rate 250 g/ha): 20; Plant response rating, Green foxtail (Green foxtail [2]; Rate 16 g/ha): 0; Plant response rating, Green foxtail (Green foxtail [2]; Rate 32 g/ha): 20; Plant response rating, Goosegrass (goosegrass; [3]): 50; Plant response rating, Goosegrass (goosegrass; [4]): 90; Plant response rating, Goosegrass (goosegrass; [5]): 100; Plant response rating, Goosegrass (goosegrass; [6]): 100; Plant response rating, Goosegrass (goosegrass; Rate 250 g/ha): 100
CC(C)N(C(=O)n1oc(=O)n(C2CCC2)c1=O)c1ccc(Cl)cc1 [Compound 349]	100	0	0	40	70	90	0	0	70	100	100	0	0	0	0	0	0	0	0	20	Plant response rating, Sandbur (sandbur; Rate 250 g/ha): 80; Plant response rating, Guineagrass (guineagrass; [3]): 0; Plant response rating, Guineagrass (guineagrass; [4]): 0; Guineagrass plant response rating (guineagrass; [5]): 0; Plant response rating, Guineagrass (guineagrass; [5]): 20; Plant response rating, Guineagrass (guineagrass; [6]): 0; Plant response rating, Guineagrass (guineagrass; Rate 250 g/ha): 40; Plant response rating, C. ragweed (common ragweed; [3]): 0; Plant response rating, C. ragweed (common ragweed; [4]): 0; Plant response rating, C. ragweed (common ragweed; [5]): 0; Plant response rating, C. ragweed (common ragweed; [6]): 0; Plant response rating, C. ragweed (common ragweed; Rate 250 g/ha): 20; Plant response rating, Green foxtail (Green foxtail [2]; Rate 16 g/ha): 0; Plant response rating, Green foxtail (Green foxtail [2]; Rate 32 g/ha): 0; Plant response rating, Goosegrass (goosegrass; [3]): 0; Plant response rating, Goosegrass (goosegrass; [4]): 20; Plant response rating, Goosegrass (goosegrass; [5]): 100; Plant response rating, Goosegrass (goosegrass; [6]): 100; Plant response rating, Goosegrass (goosegrass; Rate 250 g/ha): 90
